Assay results from ChEMBL document CHEMBL1201862, “PubChem BioAssay data set” (2004).
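Results reflect a 48-hour exposure of cells in 96-well plates to compound at five concentrations. Abbreviation: GI50, concentration required for 50% inhibition of growth.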 Active and inactive are the calls of the source. No stated cut-off is given here; in the data, active = GI50 up to about 1.1 µM and inactive = higher.

Tests used:
Test in all cases: NCI-60 cell line screen, 48 h
HCT-15 = system: HCT-15
SW-620 = system: SW-620
HCC 2998 = system: HCC 2998
A549 = system: A549
786-0 = system: 786-0
NCI-H522 = system: NCI-H522
OVCAR-4 = system: OVCAR-4
NCI-H23 = system: NCI-H23
TK-10 = system: TK-10
NCI-H226 = system: NCI-H226
SF-268 = system: SF-268
MDA-MB-435 = system: MDA-MB-435
DMS-114 = system: DMS-114
UACC-257 = system: UACC-257
UO-31 = system: UO-31
OVCAR-8 = system: OVCAR-8
KM12 = system: KM12
CAKI-1 = system: CAKI-1
SF-295 = system: SF-295
K562 = system: K562
NCI/ADR-RES = system: NCI/ADR-RES
SF-539 = system: SF-539
RXF 631 = system: RXF 631
SNB-75 = system: SNB-75
NCI-H460 = system: NCI-H460
COLO 205 = system: COLO 205
SNB-19 = system: SNB-19
RXF 393 = system: RXF 393
LOX IMVI = system: LOX IMVI
HL-60 = system: HL-60
M14 = system: M14
SR = system: SR
Malme-3M = system: Malme-3M
SK-MEL-28 = system: SK-MEL-28
OVCAR-3 = system: OVCAR-3
RPMI-8226 = system: RPMI-8226
MCF7 = system: MCF7
IGROV-1 = system: IGROV-1
Hs-578T = system: Hs-578T
HT-29 = system: HT-29
OVCAR-5 = system: OVCAR-5
ACHN = system: ACHN
PC-3 = system: PC-3
U-251 = system: U-251
A498 = system: A498
HOP-62 = system: HOP-62
MDA-MB-231 = system: MDA-MB-231
DLD-1 = system: DLD-1
SK-MEL-2 = system: SK-MEL-2
SNB-78 = system: SNB-78
CCRF-CEM = system: CCRF-CEM
DMS-273 = system: DMS-273
SK-MEL-5 = system: SK-MEL-5
MOLT-4 = system: MOLT-4
HCT-116 = system: HCT-116
KM-20L2 = system: KM-20L2
DU-145 = system: DU-145
SN12C = system: SN12C
LXFL 529 = system: LXFL 529
SK-OV-3 = system: SK-OV-3
HOP-92 = system: HOP-92
EKVX = system: EKVX
T47D = system: T47D
UACC-62 = system: UACC-62
MDA-N = system: MDA-N
M19-MEL = system: M19-MEL
XF498 = system: XF498
HOP-18 = system: HOP-18

Measured: GI50

CCCCCC(=O)OC[n+]1ccc2c(C)c3[nH]c4ccc(OC)cc4c3c(C)c2c1
inactive: TK-10 2550 nM | UACC-257 1280 nM | Malme-3M 1370 nM | OVCAR-3 > 100000 nM | SK-MEL-2 1610 nM | SK-MEL-5 1570 nM | KM-20L2 > 100000 nM | HOP-92 1200 nM
active: SW-620 73.5 nM | HCC 2998 543 nM | A549 284 nM | 786-0 84.3 nM | NCI-H522 566 nM | OVCAR-4 811 nM | NCI-H23 361 nM | NCI-H226 276 nM | SF-268 211 nM | MDA-MB-435 499 nM | DMS-114 628 nM | UO-31 625 nM | OVCAR-8 112 nM | KM12 225 nM | CAKI-1 1060 nM | SF-295 395 nM | K562 63.2 nM | NCI/ADR-RES 213 nM | SF-539 238 nM | RXF 631 429 nM | SNB-75 1110 nM | NCI-H460 32.5 nM | COLO 205 251 nM | SNB-19 189 nM | RXF 393 208 nM | LOX IMVI 224 nM | HL-60 241 nM | M14 622 nM | SR 49.8 nM | SK-MEL-28 766 nM | RPMI-8226 61.9 nM | MCF7 225 nM | IGROV-1 234 nM | Hs-578T 1110 nM | HT-29 89.7 nM | OVCAR-5 556 nM | ACHN 106 nM | PC-3 193 nM | U-251 321 nM | A498 1070 nM | HOP-62 586 nM | MDA-MB-231 244 nM | DLD-1 137 nM | SNB-78 449 nM | CCRF-CEM 80.5 nM | DMS-273 34.1 nM | MOLT-4 41.9 nM | HCT-116 48.2 nM | DU-145 505 nM | SN12C 117 nM | LXFL 529 366 nM | SK-OV-3 628 nM | EKVX 925 nM | T47D 1020 nM | UACC-62 966 nM | MDA-N 332 nM
169 nM: HCT-15

CC(=O)OC(OC(C)=O)c1ncccc1C(=O)OC(C)C
inactive: SW-620 > 100000 nM | HCC 2998 42600 nM | A549 > 100000 nM | 786-0 > 100000 nM | NCI-H522 75700 nM | OVCAR-4 > 100000 nM | NCI-H23 56100 nM | TK-10 > 100000 nM | NCI-H226 > 100000 nM | SF-268 13700 nM | DMS-114 > 100000 nM | UACC-257 > 100000 nM | UO-31 61700 nM | OVCAR-8 > 100000 nM | KM12 63700 nM | CAKI-1 > 100000 nM | SF-295 42400 nM | M19-MEL 30100 nM | K562 18900 nM | SF-539 56000 nM | SNB-75 81800 nM | XF498 > 100000 nM | NCI-H460 11300 nM | COLO 205 47400 nM | SNB-19 > 100000 nM | RXF 393 39800 nM | LOX IMVI 20900 nM | HL-60 8650 nM | M14 > 100000 nM | SR 15100 nM | Malme-3M > 100000 nM | SK-MEL-28 1180 nM | OVCAR-3 > 100000 nM | IGROV-1 > 100000 nM | HT-29 33300 nM | OVCAR-5 > 100000 nM | ACHN > 100000 nM | U-251 18300 nM | A498 > 100000 nM | HOP-62 > 100000 nM | DLD-1 31200 nM | SK-MEL-2 > 100000 nM | SNB-78 > 100000 nM | CCRF-CEM 7260 nM | DMS-273 31300 nM | SK-MEL-5 38200 nM | MOLT-4 35100 nM | HOP-18 > 100000 nM | HCT-116 57800 nM | KM-20L2 39600 nM | SN12C > 100000 nM | LXFL 529 78500 nM | SK-OV-3 > 100000 nM | HOP-92 18200 nM | EKVX > 100000 nM | UACC-62 > 100000 nM
33800 nM: HCT-15
